# Test results from US20230017532A1 (Hoffmann-La Roche Inc., priority 2018, published 2023).
# Where a name gives a salt, the structure may show the parent alone.
# System: Acinetobacter baumannii ATCC17978
# Assay: Antimicrobial susceptibility testing: 90% growth inhibitory concentration (IC90) determination, Iso-Sensitest broth, OD 600 nm
# Assay type: cell-based
# Settings: 90% growth inhibitory concentration, Acinetobacter baumannii ATCC17978, Iso-Sensitest broth, OD 600 nm over 16 h; read-out: ATCC 17978 IC90
# Method in brief: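 Growth of bacteria (~5×10^5 CFU/ml, Iso-Sensitest medium, 35±2 °C) was followed by OD at 600 nm at 20-min intervals over 16 h against a 10-point twofold compound series (e.g. 50–0.097 μM final). Concentration giving 90% inhibition in log phase was reported.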
row,Compound,IC90
1,"CCc1cc(Nc2nccn3c(-c4ccc(OCC#N)c(F)c4F)cnc23)ccc1C(=O)NCCOCCN [Example 20, N-[2-(2-aminoethoxy)ethyl]-4-[[3-[4-(cyanomethoxy)-2,3-difluoro-phenyl]imidazo[1,2-a]pyrazin-8-yl]amino]-2-ethyl-benzamide;2,2,2-trifluoroacetic acid]",64 nM

# Same assay, conditions: Acinetobacter baumannii, ATCC17978, 16 h, 90% growth inhibitory concentration, Acinetobacter baumannii ATCC17978, Iso-Sensitest broth, OD 600 nm over 16 h; read-out: ATCC 17978 IC90
row,Compound,IC90
1,"COc1ccc(-c2cnc3c(Nc4ccc(C(=O)N(C)CCOCCN5CCNCC5)c(Cl)c4)nccn23)cc1F [Example 163, 2-chloro-4-[[3-(3-fluoro-4-methoxyphenyl)imidazo[1,2-a]pyrazin-8-yl]amino]-N-methyl-N-[2-(2-piperazin-1-ylethoxy)ethyl] benzamide; hydrochloride]",570 nM
2,"Cc1cc(Nc2nccn3c(-c4ccc(OC(F)F)cc4)cnc23)ccc1C(=O)NCCOCCN1CC2(COC2)C1 [Example 114, 4-[[3-[4-(difluoromethoxy)phenyl]imidazo [1,2-a]pyrazin-8-yl]amino]-2-methyl-N-[2-[2-(2-oxa-6-azaspiro [3.3]heptan-6-yl)ethoxy]ethyl] benzamide]",580 nM
3,"Cc1cc(Nc2nccn3c(-c4ccc(OC(F)F)cc4)cnc23)ccc1C(=O)NCCOCCN1C(=O)COC1=O [Example 12, 4-((3-(4-(difluoromethoxy)phenyl)imidazo[1,2-a]pyrazin-8-yl)amino)-N-(2-(2-(2,4-dioxooxazolidin-3-yl)ethoxy)ethyl)-2-methylbenzamide]",750 nM
4,"Cc1cc(Nc2nccn3c(-c4ccc(OC(F)F)cc4)cnc23)ccc1C(=O)NCCOCCOCCOCCO [Example 152, 4-[[3-[4-(difluoro-methoxy)phenyl]imidazo [1,2-a]pyrazin-8-yl]amino]-N-[2-[2-[2-(2-hydroxyethoxy)ethoxy]ethoxy]ethyl]-2-methylbenzamide]",1600 nM
5,"Cc1cc(Nc2nccn3c(-c4ccc(OCC#CCO)cc4)cnc23)ccc1C(=O)NCCOCCN [Example 29, N-[2-(2-aminoethoxy)ethyl]-4-[[3-[4-(4-hydroxybut-2-ynoxy)phenyl]imidazo[1,2-a]pyrazin-8-yl]amino]-2-methyl-benzamide formate]",120 nM
6,"Cc1cc(Nc2nccn3c(-c4ccc(OC(F)F)cc4)cnc23)ccc1C(=O)NCCOCCNC(=O)CN1CCNCC1 [Example 153, 4-[[3-[4-(difluoro-methoxy)phenyl]imidazo [1,2-a]pyrazin-8-yl]amino]-2-methyl-N-[2-[2-[(2-piperazin-1-ylacetyl)amino)ethoxy]ethyl] benzamide; hydrochloride]",2000 nM
7,"COc1ccc(-c2cnc3c(Nc4ccc(C(=O)NCCOCCN)c(Cl)c4)nccn23)c(F)c1F [Example 18, N-(2-(2-aminoethoxy)ethyl)-2-chloro-4-((3-(2,3-difluoro-4-methoxyphenyl)imidazo[1,2-a]pyrazin-8-yl)amino)benzamide]",57 nM
8,"Cc1cc(Nc2nccn3c(-c4ccc(OC(F)F)cc4)cnc23)ccc1C(=O)NCCOCCNC(=O)CO [Example 119, 4-[[3-[4-(difluoromethoxy)phenyl]imidazo [1,2-a]pyrazin-8-yl]amino]-N-[2-[2-[(2-hydroxyacetyl)amino]ethoxy]ethyl]-2-methylbenzamide]",610 nM
9,"COc1ccc(-c2cnc3c(Nc4ccc(C(=O)NCCOCCN5CCNCC5)c(C)c4)nccn23)cc1F [Example 113, 4-[[3-(3-fluoro-4-methoxyphenyl)imidazo[1,2-a]pyrazin-8-yl]amino]-2-methyl-N-[2-(2-piperazin-1-ylethoxy)ethyl] benzamide; hydrochloride]",580 nM
10,"Cc1cc(Nc2nccn3c(-c4ccc(OC(F)F)cc4)cnc23)ccc1C(=O)NCCOCC(=O)NCc1nnn[nH]1 [Example 158, 4-[[3-[4-(difluoro-methoxy)phenyl]imidazo [1,2-a]pyrazin-8-yl]amino]-2-methyl-N-[2-[2-oxo-2-(1H-tetrazol-5-ylmethylamino)ethoxy]ethyl] benzamide]",8900 nM
11,"Cc1cc(Nc2nccn3c(-c4ccc(OC(F)F)cc4)cnc23)ccc1C(=O)N(C)CCOCCN1CCNCC1 [Example 126, 4-[[3-[4-(difluoromethoxy)phenyl]imidazo [1,2-a]pyrazin-8-yl]amino]-N,2-dimethyl-N-[2-(2-piperazin-1-ylethoxy)ethyl] benzamide]",670 nM
12,"COc1ccc(-c2cnc3c(Nc4ccc(C(=O)NCCOCCN)c(CCF)c4)nccn23)c(F)c1F [Example 74, N-[2-(2-aminoethoxy)ethyl]-4-[[3-(2,3-difluoro-4-methoxy-phenyl)imidazo[1,2-a]pyrazin-8-yl]amino]-2-(2-fluoroethyl)benzamide]",46 nM
13,"Cc1cc(Nc2nccn3c(-c4ccc(OC(F)F)cc4)cnc23)ccc1C(=O)NCCOCCNC(=O)CN(C)C [Example 127, 4-[[3-[4-(difluoromethoxy)phenyl]imidazo [1,2-a]pyrazin-8-yl]amino]-N-[2-[2-[[2-(dimethyl-amino)acetyl]amino]ethoxy]ethyl]-2-methylbenzamide]",670 nM
14,"COc1ccc(-c2cnc3c(Nc4ccc(C(=O)N(C)CCN(C)CCO)c(C)c4)nccn23)cc1F [Example 144, 4-[[3-(3-fluoro-4-methoxyphenyl)imidazo[1,2-a]pyrazin-8-yl]amino]-N-[2-[2-hydroxyethyl (methyl)amino]ethyl]-N,2-dimethyl-benzamide]",1900 nM
15,"CCc1cc(Nc2nccn3c(-c4ccc(OC(F)F)c(F)c4F)cnc23)ccc1C(=O)NCCNCCO [Example 174, 4-[[3-[4-(difluoromethoxy)-2,3-difluorophenyl]imidazo[1,2-a]pyrazin-8-yl]amino]-2-ethyl-N-[2-(2-hydroxy-ethylamino)ethyl]benzamide; hydrochloride]",590 nM
16,"Cc1cc(Nc2nccn3c(-c4ccc(Cl)cc4)cnc23)ccc1C(=O)NCCNCCN [Example 117, N-[2-(2-aminoethylamino)ethyl]-4-[[3-(4-chlorophenyl)imidazo[1,2-a]pyrazin-8-yl]amino]-2-methylbenzamide; hydrochloride]",590 nM
17,"Cc1cc(Nc2nccn3c(-c4ccc(OC(F)F)cc4)cnc23)ccc1C(=O)NCCOCCNC(=O)CCC(=O)O [Example 78, 4-[2-[2-[[4-[[3-[4-(difluoromethoxy)phenyl]imidazo [1,2-a]pyrazin-8-yl]amino]-2-methylbenzoyl]amino]ethoxy]ethylamino]-4-oxobutanoic acid]",1200 nM

# Same assay, conditions: Acinetobacter baumannii, ATCC17978, 16 h, read-out: ATCC 17978 IC90
row,Compound,IC90
1,"COc1ccc(-c2cnc3c(Nc4ccc(C(=O)NCCOCCN)c(C)c4)nccn23)cc1F [Example 36, N-(2-(2-aminoethoxy)ethyl)-4-((3-(3-fluoro-4-methoxyphenyl)imidazo[1,2-a]pyrazin-8-yl)amino)-2-methylbenzamide hydrochloride]",160 nM
2,"COc1ccc(-c2cnc3c(Nc4cc(C)c(C(=O)NCCOCCN)c(F)c4)nccn23)c(F)c1F [Example 58, N-(2-(2-Aminoethoxy)ethyl)-4-((3-(2,3-difluoro-4-methoxyphenyl)imidazo[1,2-a]pyrazin-8-yl)amino)-2-fluoro-6-methylbenzamide formate]",51 nM
3,"Cc1cc(Nc2nccn3c(-c4ccc(F)cc4)cnc23)ccc1C(=O)NCCOCCN [Example 31, N-(2-(2-aminoethoxy)ethyl)-4-((3-(4-fluorophenyl)imidazo[1,2-a]pyrazin-8-yl)amino)-2-methylbenzamide hydrochloride]",950 nM
